# Counter-ions that a name gives are not always drawn.
# Test system: PMS1
# Experiment: Mini-Gene Reporter Assay—PMS1 (firefly luciferase mini-gene reporter transiently transfected into HEK293 cells)
# Assay type: cell-based
# Settings: Homo sapiens; at 5 uM; mini-gene firefly luciferase reporter in HEK293 cells; read-out: PMS1 % Effect at 5 uM
# Outline: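 HEK293 cells transiently transfected with a mini-gene construct (skipped exon with flanking introns/exons fused to firefly luciferase, pcDNA3.1) are incubated with compounds in duplicate. Exon inclusion raises luminescence; EC50 fitted by Levenberg-Marquardt; effect also scored at 5 μM.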
row,Structure (SMILES),activation at 5 µM [%]
1,"CCOc1cn2nc(C)cc2cc1C(=O)Nc1cnc(N2CCN[C@@H](C)C2)cn1 [Compound 701, 6-ethoxy-2-methyl-N-{5-[(3S)-3-methylpiperazin-1-yl]pyrazin-2-yl}pyrazolo[1,5-a]pyridine-5-carboxamide]",> 75

# Same assay, conditions: Homo sapiens; mini-gene firefly luciferase reporter in HEK293 cells
row,Structure (SMILES),IC50 [nM]
1,"CCOc1cc2nc(C)cn2cc1C(=O)Nc1cnc(N2CCN[C@@H](C)C2)cn1 [Compound 700, 7-ethoxy-2-methyl-N-5-[(3S)-3-methylpiperazin-1-yl]pyrazin-2-ylimidazo[1,2-a]pyridine-6-carboxamide]",< 1000
2,"CCOc1cc2nc(C)cn2cc1C(=O)Nc1ccc(N2CCN[C@@H](C)C2)cc1F [Compound 702, 7-ethoxy-N-2-fluoro-4-[(3S)-3-methylpiperazin-1-yl]phenyl-2-methylimidazo[1,2-a]pyridine-6-carboxamide]",< 1000
3,"CCOc1cc2nc(C)cn2cc1C(=O)Nc1ccc(N2CCNC3(CC3)C2)cc1F [Compound 704, N-(4-4,7-diazaspiro[2.5]octan-7-yl-2-fluorophenyl)-7-ethoxy-2-methylimidazo[1,2-a]pyridine-6-carboxamide]",< 1000
4,"Cc1cn2cc(C(=O)Nc3ccc(N4CCN[C@@H](C)C4)cc3F)c(OC3CCC3)cc2n1 [Compound 705, 7-cyclobutoxy-N-2-fluoro-4-[(3S)-3-methylpiperazin-1-yl]phenyl-2-methylimidazo[1,2-a]pyridine-6-carboxamide]",< 1000
5,"CCOc1cc2nn(C)cc2cc1C(=O)Nc1ccc(C2=CCNCC2)nn1 [Compound 708, 6-ethoxy-2-methyl-N-(6-(1,2,3,6-tetrahydropyridin-4-yl)pyridazin-3-yl)-2H-indazole-5-carboxamide formate]",< 1000
6,"CCOc1cc2nc(C)cn2cc1C(=O)Nc1ccc(C2=CCNCC2)nn1 [Compound 709, 7-ethoxy-2-methyl-N-(6-(1,2,3,6-tetrahydropyridin-4-yl)pyridazin-3-yl)imidazo[1,2-a]pyridine-6-carboxamide hydrochloride]",< 1000
7,"Cc1cn2cc(C(=O)Nc3ccc(N4CCNCC4)cn3)c(OC3CC3)cc2n1 [Compound 712, 7-cyclopropoxy-2-methyl-N-(5-(piperazin-1-yl)pyridin-2-yl) imidazo[1,2-a]pyridine-6-carboxamide hydrochloride]",< 1000
8,"COc1cc2nc(C)cn2cc1C(=O)Nc1ccc(N2CCN[C@@H](C)C2)nn1 [Compound 713, (S)-7-methoxy-2-methyl-N-(6-(3-methylpiperazin-1-yl)pyridazin-3-yl)imidazo[1,2-a]pyridine-6-carboxamide hydrochloride]",< 1000
9,"CCOc1nc2nn(C)cc2cc1C(=O)Nc1ccc(N2CCNCC2)nn1 [Compound 715, 6-ethoxy-2-methyl-N-(6-(piperazin-1-yl)pyridazin-3-yl)-2H-pyrazolo[3,4-b]pyridine-5-carboxamide]",< 1000

# The next lines start with the values.
row,IC50 [nM],Structure (SMILES)
1,< 1000,"CCOc1cc2nn(C)cc2cc1C(=O)Nc1cnc(N2CCN[C@@H](C)C2)cn1 [Compound 710, (S)-6-ethoxy-2-methyl-N-(5-(3-methylpiperazin-1-yl)pyrazin-2-yl)-2H-indazole-5-carboxamide formate]"
2,< 1000,"CCOc1nc2nc(C)cn2cc1C(=O)Nc1ccc(N2CCNCC2)cn1 [Compound 711, 7-ethoxy-2-methyl-N-(5-(piperazin-1-yl)pyridin-2-yl)imidazo[1,2-a]pyrimidine-6-carboxamide formate]"
3,< 1000,"CCOc1nc2nc(C)cn2cc1C(=O)Nc1ccc(N2C[C@@H](C)N[C@@H](C)C2)nn1 [Compound 714, N-(6-((3R,5S)-3,5-dimethylpiperazin-1-yl)pyridazin-3-yl)-7-ethoxy-2-methylimidazo[1,2-a]pyrimidine-6-carboxamide hydrochloride]"
4,< 1000,"CCOc1cc2nn(C)cc2cc1C(=O)Nc1cnc(N2CCN[C@@H](CC)C2)cn1 [Compound 716, (S)-6-ethoxy-N-(5-(3-ethylpiperazin-1-yl)pyrazin-2-yl)-2-methyl-2H-indazole-5-carboxamide HCl Salt]"

# Reference: US20250066389A1, “HETEROCYCLIC AMIDES AND METHODS OF USING THE SAME” (Rgenta Therapeutics, Inc., priority 2021, published 2025)
